Measurements reported in patent US11548935B2 (NeoMatrix Therapeutics Inc., priority 2016, dated 2023).
“Also recorded” adds a separate entry of the source. Peptide text beside a SMILES is read from it.

What was measured:
[1] = system: Adult human dermal fibroblasts CF31 cells; assay: Fibroblast metabolism (XTT) assay with 1 nM PDGF-BB, 6 days; format: cell-based; settings: for bioactivity as determined by fibroblast metabolism assay: FIG. 2, XTT OD 450 nm
Experimental: Adult human dermal fibroblasts CF31 cells at 1000 cells/well were seeded in a collagen-coated 96-well plate in DMEM overnight, then 1 nM PDGF-BB with peptides at indicated doses was added and cells were incubated at 37° C. for 6 days. Then cell metabolism was measured by XTT assay by reading OD at 450 nm. Each point represents the mean of 6 replicates with a typical SD=5-10% around the mean (not shown for graft clarity).
Adult human dermal fibroblasts, CF31, at 1000 cells/well were incubated at 37° C. in a collagen-coated 96-well plate with DMEM, 1 nM PDGF-BB with peptides at indicated doses for 6 days and then cell metabolism was measured by XTT assay, reading OD at 450 nm. Data represent the mean of 6 replicates.
P12, P46, cNP7 and cNP8 were compared for their ability to promote the survival of adult human dermal fibroblasts in the presence of PDGF-BB. Adult human dermal fibroblasts at 1000 cells/well were incubated in a collagen-coated 96-well plate with DMEM, 1 nM PDGF-BB with peptides at indicated doses for 6 days and then cell metabolism was measured by XTT assay. Data represent the mean of 6 replicates (FIG. 4).

PDGF-BB = PDGF-BB (Homo sapiens, UniProt P01127); assay: Surface plasmon resonance (Biacore) binding to growth factor; settings: plasmon surface resonance (Biacore T200)
Experimental: (§1) To study the binding activities of these peptides, real time interactions of P12, P46, and cNP8 with growth factors were determined by plasmon surface resonance (Biacore T200).
In the Biacore2000 system, binding constants from kinetic data are determined by passing varying concentrations of FN peptides (analytes) over chip surfaces which are coupled with PDGF-BB (ligand), respectively. All kinetic experiments are carried out at 20° C. at a flow rate of 20 μl/min. For mass transport experiments, each analyte is injected at a fixed concentration and run at flow rates ranging from 5 to 75 μl/min. All analytes are injected over PDGF-BB ligand surfaces as well as over a control surface for 120 s, followed by 300 s of dissociation in running buffer. Regeneration of the sensor chip for subsequent injections is accomplished by pulse of 0.1% SDS. Mass transport experiments have detected little difference in response at different flow rates thus validating data from kinetic experiments. Sensorgrams are prepared and globally fitted using nonlinear least-squares analysis and numerical integration of the differential rate equations with the Biacore Bioevaluation software. […] Each data set, which consists of a series of sensorgrams from injections of different concentration of analyte over the same surface, is analyzed using kinetic models from Bioevaluation software.

burn wounds [2] = assay: Topical treatment of porcine deep partial-thickness burns (PLO gel); format: in vivo, pig; settings: 48-hour debrided wounds, 10 days after wounding, vs control or cP12 (FIG. 6)
Experimental: Four female, 20-30 kg, domestic pigs were used for cutaneous wound procedures.
Study Protocol: The animals were sedated with Talazine (Tiletamine and Zolazepam, Fort Dodge Lab, Fort Dodge, Iowa) 5 mg/kg IM. The pigs were then intubated endotracheally and maintained under a surgical plane of anesthesia with isoflurane 0.5-2.5% in room air. The flank and back hair were clipped with electric hair clippers and the skin was scrubbed with a povidone iodine solution.
Standardized deep partial-thickness burns were created on the animals' backs and flanks by applying a 2.5-cm by 2.5-cm, 150-gram aluminum bar preheated in hot water to 80° C. The burns were created on either side of the vertebral column between the forelegs and hind legs. The heated bar was wiped dry just prior to application to prevent water droplets from creating a steam burn on the skin. The bar was then placed at a vertical position perpendicular to the skin's surface and applied for a period of 20 seconds with all pressure supplied by gravity. […] 24 burns were evenly distributed on both sides of the back of four pigs. […] Debridement was performed by gently rubbing dry gauze against the surface of the burn until the necrotic epidermis was peeled away from the entire burn surface. Interventions: On the back skin of each pig, equal sets of 4 burns were randomly treated with one of the 6 study treatments. […]

[3] = molecular target: Transforming Growth Factor-Beta1 (TGF-β1) (Homo sapiens, UniProt P01137); assay: Surface plasmon resonance (Biacore) binding to growth factor; settings: plasmon surface resonance (Biacore T200)
Experimental: as §1

[4] = molecular target: insulin-like growth factor-1 (IGF-1) (Homo sapiens, UniProt P05019); assay: as above; settings: plasmon surface resonance (Biacore T200)
Experimental: as §1

[5] = molecular target: epidermal growth factor (EGF) (Homo sapiens, UniProt P01133); assay: as above; settings: plasmon surface resonance (Biacore T200)
Experimental: as §1

burn wounds [6] = assay: Intravenous treatment in porcine vertical progression burn model; format: in vivo, pig; settings: intravenous infusion 0.001, 0.01 or 0.1 mg/kg
Experimental: The vertical progression burn model (as shown in above topical experiment) was used to create burns on the backs of each of 4 pigs. Twenty burns (80° C./20 seconds) were made on the backs of each pig—one set of burns was made 8 hours prior to infusion, the second set was made 4 hours prior to infusion. Three pigs were treated with infusions of 0.001, 0.01 or 0.1 mg/kg of cNP8 and one pig was treated with an infusion of buffer, as control. Lyophilized cNP8 was reconstituted in PBS (11.6 mg/ml corrected-based on 75% pure) to get a 5 mM stock solution in the laboratory and filtered with a syringe filter with 0.22 um membrane. The concentration of filtered cNP8 solution was determined by reading OD280 and the concentration was calculated based on OD280=6.76 per mM cNP8. The cNP8 was diluted to 5 mM with PBS as necessary. The filtered cNP8 solution was aliquoted and stored at −80° C. Just before infusion, cNP8 was further diluted: a) 1:270 with PBS to get a 0.019 mM cNP8 solution. The injection amount was 3 ml/kg body weight of 0.019 mM cNP8 which is equal to 0.1 mg/kg body weight. b) 1:2700 with PBS to get a 0.0019 mM cNP8 solution. The injection was 3 ml/kg body weight of 0.0019 mM cNP8 which is equal to 0.01 mg/kg body weight. c) 1:27000 with PBS to get a 0.00019 mM cNP8 solution. The injection amount was 3 ml/kg body weight of 0.00019 mM cNP8 which is equal to 0.001 mg/kg body weight. […]

[7] = system: adult human dermal fibroblast; assay: Screening experiment of adult human dermal fibroblast survival in medium without serum with 1 nM PDGF-BB; format: cell-based; settings: 6 days of incubation
[8] = molecular target: T1, human neutrophil elastase (Homo sapiens, UniProt P08246)
T1 sequence (P08246 30-267): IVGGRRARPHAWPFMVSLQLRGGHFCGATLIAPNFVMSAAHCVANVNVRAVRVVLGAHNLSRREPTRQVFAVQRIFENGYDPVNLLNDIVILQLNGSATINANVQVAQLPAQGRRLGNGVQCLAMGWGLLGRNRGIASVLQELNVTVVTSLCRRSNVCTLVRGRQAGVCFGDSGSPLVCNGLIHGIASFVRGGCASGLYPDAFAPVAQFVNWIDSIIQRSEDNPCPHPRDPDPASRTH
Experimental: P46 was incubated with purified human neutrophil elastase at 1:100 enzyme:substrate molar ratio at 37° C. for 4 h (3A) or 24 h (3B). Peptides stability was determined by MALDI-TOF analysis.
Peptides' stability was determined by MALDI-TOF analysis.
The reaction was stopped with formic acid and the reaction mixture was analyzed by mass spectroscopy.
To determine the sensitivity of P46 to elastase digestion, P46 was synthesized and digested with elastase. […] P46 was incubated with purified human neutrophil elastase at 1:100 enzyme:substrate molar ratio at 37° C. for 4 h (FIG. 3A) or 24 h (FIG. 3B). The elastase-generated smaller peptides were determined by MALDI-TOF analysis.
Peptide's stability was determined by MALDI-TOF analysis.

[9] = system: human neutrophil elastase; assay: purified human neutrophil elastase; settings: up to 24 h

Chain of Transforming Growth Factor-Beta1 (TGF-β1) (P01137 279-390 limits assumed, species assumed): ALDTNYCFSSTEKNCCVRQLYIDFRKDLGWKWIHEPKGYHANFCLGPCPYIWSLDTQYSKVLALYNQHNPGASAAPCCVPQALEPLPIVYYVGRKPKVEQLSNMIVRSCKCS
Chain of PDGF-BB (P01127 82-190 limits assumed): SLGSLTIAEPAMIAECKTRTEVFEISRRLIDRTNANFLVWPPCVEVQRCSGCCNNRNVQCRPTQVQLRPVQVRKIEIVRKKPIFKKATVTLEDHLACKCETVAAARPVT
Chain of insulin-like growth factor-1 (IGF-1) (P05019 49-118, species assumed): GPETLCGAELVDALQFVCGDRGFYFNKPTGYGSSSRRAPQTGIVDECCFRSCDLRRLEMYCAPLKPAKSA
Chain of epidermal growth factor (EGF) (P01133 971-1023 limits assumed, species assumed): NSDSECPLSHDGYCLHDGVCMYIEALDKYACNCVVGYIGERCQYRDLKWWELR

## CC[C@H](C)[C@@H]1NC(=O)[C@H](Cc2c[nH]cn2)NC(=O)[C@H](C(C)C)NC(=O)[C@H](CO)NC(=O)CNC(=O)[C@H](CCCCN)NC(=O)[C@@H]2CCCN2C(=O)[C@H](CCCNC(=N)N)NC(=O)[C@H](Cc2c[nH]c3ccccc23)NC(=O)[C@H](CCCNC(=N)N)NC(=O)[C@H](CC(C)C)NC(=O)CNC(=O)[C@H](Cc2ccc(O)cc2)NC(=O)[C@H](CCCCN)NC(=O)CNC1=O [cNP8, HIGKYGLRWRPKGSV] (cyclo(HIGKYGLRWRPKGSV))
[1]; FIG. 4, XTT
  bioactivity compared with other peptides: equivalent or better bioactivity; also recorded: much higher bioactivity than that of P12
  promotion of survival of adult human dermal fibroblasts in the presence of PDGF-BB: promoted the survival of adult human dermal fibroblasts
PDGF-BB
  binding to PDGF-BB: bind
Burn wounds [2]
  re-epithelialization: markedly increased
[3]
  binding to TGF-β1: bind
[4]
  binding to IGF-1: did not bind
[5]
  binding to EGF: did not bind
Burn wounds [6]; day 10 post-injury (FIG. 7)
  re-epithelialization: markedly increased; also recorded: increase of re-epithelialization
Burn wounds [6]; day 14 post-injury (FIG. 8)
  re-epithelialization: markedly increased; also recorded: increase of re-epithelialization

## HIGKYGLRWRPKGSV (polypeptide according to formula I) [NP8, engineered peptide designed from P46]
[7]
  biological activity on screening experiment of fibroblast survival: best biological activity

## HIGKYGLRWRPKNSV [cNP7, cyclic form of engineered peptide NP7]
[1]; FIG. 4, XTT
  promotion of survival of adult human dermal fibroblasts in the presence of PDGF-BB: promoted the survival of adult human dermal fibroblasts

## HISKYILGWRPKNSV (NP9 peptide) [engineered peptide designed from P46]
[7]
  biological activity on screening experiment of fibroblast survival: minimal biological activity

## HISKYILRGRPKNSV (NP10 peptide) [engineered peptide designed from P46]
[7]
  biological activity on screening experiment of fibroblast survival: minimal biological activity

## HISKYILRWGPKNSV (NP11 peptide) [engineered peptide designed from P46]
[7]
  biological activity on screening experiment of fibroblast survival: minimal biological activity

## HISKYILRWRPKNSV (polypeptide according to formula I) [P46, peptide produced by elastase digestion of FN III1-C]
[8]
  sensitivity to elastase digestion: retained some sensitivity to elastase digestion
[1]
  bioactivity as determined by fibroblast metabolism assay: much higher bioactivity than that of P12
[1]; FIG. 4, XTT
  promotion of survival of adult human dermal fibroblasts in the presence of PDGF-BB: promoted the survival of adult human dermal fibroblasts
PDGF-BB
  binding to PDGF-BB: bind
[3]
  binding to TGF-β1: bind
[4]
  binding to IGF-1: did not bind
[5]
  binding to EGF: did not bind

## PSHISKYILRWRPK
[9]
  fragment found: KYILRWRPKPSHIS; also recorded: RWRPKPSHISKYIL

## PSHISKYILRWRPK [cP12]
[8]
  degradation by neutrophil elastase: remain sensitive to this endopeptidase
  number of elastase-cleavage sites: five

## SKYILRWRPKNSV (P45 peptide) [peptide produced by elastase digestion of FN III1-C]
[1]
  bioactivity as determined by fibroblast metabolism assay: little bioactivity

## cyclo(HIGKYGLRWRPKGSV) (SMILES CC[C@H](C)[C@@H]1NC(=O)[C@H](Cc2c[nH]cn2)NC(=O)[C@H](C(C)C)NC(=O)[C@H](CO)NC(=O)CNC(=O)[C@H](CCCCN)NC(=O)[C@@H]2CCCN2C(=O)[C@H](CCCNC(=N)N)NC(=O)[C@H](Cc2c[nH]c3ccccc23)NC(=O)[C@H](CCCNC(=N)N)NC(=O)[C@H](CC(C)C)NC(=O)CNC(=O)[C@H](Cc2ccc(O)cc2)NC(=O)[C@H](CCCCN)NC(=O)CNC1=O)
[9]; 37° C.
  not cleaved: A large majority of intact peptide was retained at 24 h
